{
  "source": "patent US7160684B2",
  "about": "“Methods of selecting compounds for modulation of bladder function” (Wyeth, priority 2000, dated 2007)",
  "key": {"[1]": {"test_system": "isolated rat bladder strips", "test": "Isolated rat bladder strip contraction", "conditions": "strips precontracted with 20 mM KCl; for antagonism of the effects of retigabine on bladder strip contractions: 10 μM antagonist", "protocol": "Male Sprague-Dawley rats (200–400 grams) are euthanized by CO2 inhalation and exsanguination. Their urinary bladders are rapidly removed and placed in […] physiological salt solution (PSS) that contained the following (mM): NaCl (118.4), KCl (5), CaCl2 (2.5), MgSO4 (1.2), KH2PO4 (1.2), NaHCO3 (24.9) and D-glucose (11.1) gassed with O2/CO2 (95% /5%) to achieve a pH of 7.4. The dome of the bladder is isolated from the trigon region and this tissue is then cut into 4–5 mm wide by 10 mm long strips. One end is secured to the bottom of a water jacketed tissue bath and the other to a GRASS isometric force transducer (Grass Instruments, Quincy, Mass.). Tissues are pretensioned (0.25 to 0.5 grams), and after 30 minutes of equilibration are contracted with an additional 15 mM KCl (total of 20 mM) and again allowed to equilibrate until the preparations are contracting steadily. Any of a variety of compounds are administered directly into the tissue baths as sequential concentrations. Transducer signals are digitized (12 bit resolution) and analyzed on-line using a 586-based computer and custom software. The area under the contraction curve (AUC) is used as a measure of contractility since the spontaneous bladder contractions are irregular in amplitude and frequency. A 5-minute AUC value is taken 30 minutes after administration of each compound concentration to the tissue bath.\nWe isolated rat bladder strips from male Sprague-Dawley rats as previously described, (Wojdan, A., Freeden, C., Woods, M., Oshiro, G., Spinelli, W. et al., J Pharmacol Exp Therap 289: 1410–1418 (1999)) and precontracted them with 20 mM KCl. The KCNQ channel agonist retigabine, was added to the tissue bath in increasing concentrations, and area under the contraction curve was analyzed.\nIn another study, isolated rat bladder strips were precontracted with 60 mM KCl (FIG. 1).\nThe difference in IC50s between 20 and 60 mM KCl depolarizations are consistent with a potassium channel opening mechanism.\nRat bladder strips were isolated and prepared as previously described (Wojdan, A., Freeden, C., Woods, M., Oshiro, G., Spinelli, W. et al., J Pharmacol ExpTherap 289:1410–1418 (1999)). Preparations were contracted with either 20 or 60 mM KCl, or 200 nM carbachol. A five minute area under the contraction curve was acquired 20 minutes after addition of each concentration of retigabine using a 12 bit D/A and a 586 based personal computer running custom software. Message for KCNQ subunits was probed using quantitative rtPCR on an ABI PRISM 7700 Sequence Detection System (TAQMAN). Forward and reverse primers and TAQMAN probes were designed using published RNA sequences for human KCNQ1–5 and rat KCNQ 1–4 listed within the NCBI data base. Since no rat sequence for KCNQ5 were currently published, probes and primers were designed by BLAST analysis of rat Expressed Sequence Tags (EST) using the known mouse KNCQ5 sequence. From homologous EST sequences, a contiguous sequence of 384 base pairs was constructed. Probes and primers were designed against this sequence. BLAST analysis of our rat KCNQ5 probes and primer were selective for mouse and human KCNQ5 sequences. PCR products were confirmed by gel electrophoresis (data not shown). Cells for electrophysiology were prepared from rat bladder smooth muscle as previously described (Wojdan et al., 1999). Human bladder smooth muscle cells were obtained from Clonetics, San Diego, Calif. […]"}, "[2]": {"test_system": "isolated rat bladder smooth muscle cell", "test": "Current clamp recording of resting membrane potential, rat cells", "assay_type": "cell-based", "source_text": "(§1) Rat detrusor cells are isolated in a manner previously described for guinea-pig detrusor (Sheldon J H, Norton N W and Argentieri T M (1997) Inhibition of guinea pig detrusor contraction by NS-1619 is associated with activation of BKCa and inhibition of calcium currents. J Pharmacol Exp Thera 283(3): 1193–1200). Male Sprague-Dawley rats (Charles River, Wilmington, Mass.; 200–400 grams) are euthanized by CO2 inhalation and exsanguination. Their urinary bladders are rapidly removed and placed in 37° C. physiological solution with the following composition (mM): Na glutamate (80.0), NaCl (54.7), KCl (5.0), NaHCO3 (25.0), MgCl2.2H2O (2.5), D-glucose (11.8) and CaCl2 (0.2) gassed with O2—CO2, 95%/5% for a final pH of 7.4. The dome of the bladder is isolated from the trigone region and the mucosa is removed. This tissue is then cut into 2–3 mm wide strips and placed into fresh buffer for 1 hour. Tissues are then transferred into 10 ml of an isolation buffer containing the above composition plus collagenase type VIII (1.0 mg/ml) and pronase (0.25 mg/ml). After 10 minutes the isolation buffer is replaced with fresh isolation buffer for an additional 10 min. The tissue is then washed 3 times in fresh collagenase and pronase free solution and stored at room temperature until studied. Cells for study are prepared by triturating 1–2 pieces of detrusor tissue in 2 ml of fresh isolation buffer for 5 minutes with a polished Pasteur pipette, (tip diameter ˜1.5 mm) attached to a modified Harvard Respirator pump (Harvard Apparatus, Southnatic, Mass.) at a rate of 20×/min. with an approximate volume of 5 ml. Cells are then placed on a microscope stage in a temperature regulated tissue bath at 32.5° C. and continually superfused with PSS.\n(§2) Single cell recordings are performed with a List-Medical EPC-7 patch clamp amplifier (Adams & List Assoc., Westbury, N.Y.). Pipette electrodes had tip resistances of 2–4 MΩ and are filled with the following composition (mM): KCl (126.0), MgCl2.6H2O (4.5), ATP Mg salt (4.0), GTP tris salt (0.3), creatine PO4 (14.0), D-glucose (9.0), EGTA (9.0), HEPES (9.0). The pH is adjusted to 7.4 with KOH. Signals are acquired (3 kHz high frequency cut-off, 12 bit resolution) using a 586-based personal computer.\nCell resting membrane potential (RMP) is measured in current clamp using the above mentioned instrumentation and pipette solutions. For these experiments nystatin is also added to the pipette solution (100 μg/ml) to allow recording through utilization of the perforated patch technique (Korn, et al, 1991). […] After this time, various antagonists (linopirdine, XE-991) are added to the perfusate and RMP is recorded for an additional 5 minutes. […]"}, "[3]": {"test_system": "isolated rat bladder smooth muscle cell", "test": "Voltage clamp recording of outward current, rat cells", "assay_type": "cell-based", "source_text": "as §1, §2\nWhole cell recordings are made using broken patch access. Currents are evoked using either voltage steps (Vh=−50; Vt=−60 to 40 mV) or voltage ramps (−60 to 40 mV at 3.3 mV/sec.). The exact voltage clamp protocols are well known in the art. After stability is achieved control currents are recorded. Next, test compound is added to the superfusate. Currents are recorded for 5 to 10 minutes or until compound effects reach steady state. This is followed either by washout or addition of antagonists (linopirdine, XE-991) to the superfusate. […]"}, "[4]": {"test_system": "cultured human bladder smooth muscle cells", "test": "Voltage clamp recording of outward current, human cells", "assay_type": "cell-based", "conditions": "XE-991 (10 μM in FIG. 3d)", "protocol": "as §2\nWhole cell recordings are made using broken patch access. Currents are evoked using either voltage steps (Vh=−50; Vt=−60 to 40 mV) or voltage ramps (−60 to 40 mV at 3.3 mV/sec.). The exact voltage clamp protocols are well known in the art. After stability is achieved control currents are recorded. Next, test compound is added to the superfusate. Currents are recorded for 5 to 10 minutes or until compound effects reach steady state. This is followed either by washout or addition of antagonists (linopirdine, XE-991) to the superfusate.\nCellular electrophysiological studies were conducted using both voltage and current clamp techniques (Hammill, O., P., Marty, A., Neher, E., Sakmann, B. & Sigworth, F. J.: Improved patch-clamp techniques for high-resolution current recordings from cells and cell-free membrane patches. Pflugers Arch 391: 85–100 (1981)) from Sprague-Dawley rat (200–400 grams) bladders as previously described, (Wojdan, A., Freeden, C., Woods, M., Oshiro, G., Spinelli, W. et al., J. Pharmacol Exp Therap 289: 1410–1418 (1999)) and from a human bladder, primary cell culture (Colnetics, San Diego, Calif.). In rat cells, the average, control resting membrane potential (RMP) was −29.0±4.5 mV. […]\nRat bladder strips were isolated and prepared as previously described (Wojdan, A., Freeden, C., Woods, M., Oshiro, G., Spinelli, W. et al., J Pharmacol ExpTherap 289:1410–1418 (1999)). […] Message for KCNQ subunits was probed using quantitative rtPCR on an ABI PRISM 7700 Sequence Detection System (TAQMAN). […]"}},
  "data": [
    {"compound": "COc1ccc(Cl)cc1C(=O)NCCc1ccc(S(=O)(=O)NC(=O)NC2CCCCC2)cc1", "note": "[glyburide]", "values": [
      {"measurement": "reversal of the effects of retigabine on bladder strip contractions", "setting": "[1]; glyburide 10 μM", "value": "not reversed"}
    ]},
    {"compound": "O=C1c2ccccc2C(Cc2ccncc2)(Cc2ccncc2)c2ccccc21", "note": "[XE-991, 10,10-bis(4-pyridinylmethyl)-9(10H)-anthracenone]", "values": [
      {"measurement": "antagonism of the effects of retigabine on bladder strip contractions", "setting": "[1]", "value": "94.8±17.5", "unit": "%"},
      {"measurement": "reversal of retigabine-induced hyperpolarization", "setting": "[2]; 10 μM XE-991 after 10 μM retigabine", "value": "completely reversed"},
      {"measurement": "effect on membrane potential relative to initial RMP", "setting": "[2]; 10 μM XE-991 after retigabine", "value": "depolarized the cell below its initial RMP"},
      {"measurement": "reversal of retigabine-induced increase in outward current", "setting": "[3]; XE-991 10 μM", "value": "partially reversed"},
      {"measurement": "reversal of retigabine-induced changes (hyperpolarization, outward current)", "setting": "[4]", "value": "partially reversed"}
    ]},
    {"compound": "iberiotoxin (QFTDVDCSVSKECWSVCKDLFGVDRGKCMGKKCRCYQ; UniProt P24663 1-37, looked up)", "values": [
      {"measurement": "sensitivity of retigabine-induced increase in outward current to blocker", "setting": "[3]; 100 nM iberiotoxin", "value": "not sensitive"}
    ]},
    {"compound": "O=C1N(c2ccccc2)c2ccccc2C1(Cc1ccncc1)Cc1ccncc1", "note": "[linopirdine]", "values": [
      {"measurement": "antagonism of the effects of retigabine on bladder strip contractions", "setting": "[1]", "value": "94.8±17.5", "unit": "%"},
      {"measurement": "reversal of retigabine-induced increase in outward current", "setting": "[3]; linopirdine 50 μM", "value": "partially reversed"}
    ]}
  ]
}
